The values that follow are results of earlier work, collected in US10945991B2, “Use and pharmaceutical composition for liver fibrosis prevention and/or treatment” (Cojet Biotech Inc., priority 2018, dated 2021).

The series concerns RAW 264.7 cell line.

`Cc1cc(O)c2c(c1O)OCO2` [MBDD, 5-methyl-benzol[1,3]dioxole-4,7-diol]: the “NO production induced by lipopolysaccharide” value (RAW 264.7 cell line, effect may result from cytotoxicity) is “reduce the NO production”. Further, the cytotoxicity entry (RAW 264.7 cells) was “strong cytotoxicity”.
